Assay results taken from patent publication US20040072767A1, “Glucopyranose derivatives and medicaments for preventing and/or treating HIV infection diseases comprising the same as an active ingredient” (ONO PHARMACEUTICAL CO., LTD., priority 1998, published 2004).

Each molecule was assayed against T1, CXCR4 (Homo sapiens, UniProt P61073) (assay: Inhibition experiment against induction activity of SDF-1 on transitory increase of Ca ion). Conditions: CCRF-HSB-2; test compound 10 μM; SDF-1β 30 nM added 3 minutes after compound; CCRF-HSB2 human T cells loaded with Fura-2AM; read-out: Inhibition rate (%).
T1 construct: host or cells: CCRF-HSB2 human T cells
Type: cell-based
Source text: As described above, for screening a compound inhibiting the binding of HIV to CXCR4 which is a receptor on T cell, it is a more direct procedure to carry out the screening in an assay system using HIV virus. However, use of HIV virus on a large scale screening is not practical owing to its difficulty of handling. On the other hand, since HIV and SDF-1 are both bound to CXCR4, it is expectable that there are some common characteristics between the CXCR4 binding sites of both HIV and SDF-1 sides and the SDF-1 and HIV binding sites of CXCR4 side. Therefore, in order to find out a compound inhibiting the adsorption of HIV virus to a cell, i.e., having an activity mechanism different from the existing anti-AIDS medicaments (inhibitors of reverse transcription and inhibitors of proteases), it is possible to utilize an assay system using SDF-1 which is an original ligand for CXCR4, instead of HIV. More particularly, as an example of the screening system of a compound inhibiting the binding of SDF-1 to CXCR4, a system of measuring an effect on transitory increase of Ca ion induced by SDF-1 through CXCR4 is practicable since CXCR4 is a G protein-conjugated seven-times transmembrane-type receptor.
A human T cell expressing CXCR4, for example cells of CCRF-HSB2 (ATCC No. CCL-120.1) were suspended into RPMI-1640 medium, fetal bovine serum (FBS) (10%), Fura-2AM (5 μM) (Dojin Kagaku, cat# 343-05401), Probenecid (2.5 mM), and a HEPES buffer (20 mM, pH 7.4) so as to be 5×10^6 cell/ml, and the suspension was heated at 37° C. for 30 minutes under a light-shielded condition. Then, a 4 to 8 fold-diluted Hanks solution (1× Hanks), HEPES (20 mM, pH 7.4) and Probenecid (2.5 mM) were added thereto, and the whole was heated for another 30 minutes. After the cells were washed with a solution of 1× Hanks, HEPES (20 mM, pH 7.4) and Probenecid (2.5 mM), they were re-suspended into the solution so as to be 2×10^6 cell/ml. For the T cell on which Fura-2AM had been loaded, the transitory increase of Ca induced by the addition of recombinant SDF-1β dissolved in PBS(−) was detected by use of a suitable Ca detector. In the inhibition experiment, the inhibitory effect of a test compound (10 μM) on the transitory increase of Ca induced by the addition of recombinant SDF-1β were measured by adding SDF-1β at an amount so as to be final concentration of, for example, 30 nM at 3 minutes after the addition of the test compound. An inhibition rate (%) was calculated according to the following equation.
Inhibition rate=(Ec−Ea)/Ec×100
In the equation, each symbol means as follows: […]
Ec: measured value of the transitory increase of Ca induced by SDF-1β
Ea: measured value of the transitory increase of Ca induced by SDF-1β when a test compound was added.

T1 sequence (P61073 whole entry): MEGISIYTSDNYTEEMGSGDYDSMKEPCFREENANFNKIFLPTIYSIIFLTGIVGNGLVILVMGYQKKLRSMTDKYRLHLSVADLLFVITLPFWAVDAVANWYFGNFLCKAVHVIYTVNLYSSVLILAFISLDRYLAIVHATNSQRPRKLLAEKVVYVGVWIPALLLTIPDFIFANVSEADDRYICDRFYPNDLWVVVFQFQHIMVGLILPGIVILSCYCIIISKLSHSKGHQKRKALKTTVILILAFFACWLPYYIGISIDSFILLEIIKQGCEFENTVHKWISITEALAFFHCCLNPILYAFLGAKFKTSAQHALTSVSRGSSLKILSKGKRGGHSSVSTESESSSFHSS

Row | Structure (SMILES) | inhibition at 10 µM [%]
1 | CCCCCCCCCCC[C@H](CC(=O)N[C@H]1C(O)O[C@H](CO)[C@@H](OS(=O)(=O)O)[C@@H]1OC(=O)CCCCC)OC(=O)CCCCC (stereo partly drawn) [Example 2 (3), 2-deoxy-2-[3R-(hexanoyloxy)tetradecanoyl]amino-3-O-hexanoyl-4-O-sulfo-D-glucopyranose] | 79
2 | CCCCCCCCCCC[C@H](CC(=O)N[C@H]1C(O)O[C@H](CO)[C@@H](OS(=O)(=O)O)[C@@H]1OC(=O)CCCCCCCCC)OC(=O)CCCCCCCCC (stereo partly drawn) [Example 2 (4), 2-deoxy-2-[3R-(decanoyloxy)tetradecanoyl]amino-3-O-decanoyl-4-O-sulfo-D-glucopyranose] | 94
3 | CCCCCCCCCCCC(=O)O[C@H](CCCCCCCCCCC)CC(=O)N[C@H]1C(O)O[C@H](CO)[C@@H](OS(=O)(=O)O)[C@@H]1OC(=O)CCCCCCCCCCC (stereo partly drawn) [Example 2 (5), 2-deoxy-2-[3R-(dodecanoyloxy)tetradecanoyl]amino-3-O-dodecanoyl-4-O-sulfo-D-glucopyranose] | 99

Same assay, conditions: test compound 10 μM; SDF-1β 30 nM added 3 minutes after compound; CCRF-HSB2 human T cells loaded with Fura-2AM

Row | Structure (SMILES) | Inhibition rate (%)
4 | CCCCCCCCCCC[C@@H](CC(=O)N[C@H]1C(O)O[C@H](CO)[C@@H](OS(=O)(=O)[O-])[C@@H]1OC(=O)CCCCCCCCc1ccccc1)OC(=O)CCCCCCCCc1ccccc1.[Na+] (stereo partly drawn) [Compound (1), 2-Deoxy-2-[3S-(9-phenylnonanoyloxy)tetradecanoyl]amino-3-O-(9-phenylnonanoyl)-4-O-sulfo-D-glucopyranose sodium salt] | 93
5 | O=C(C[C@H](CCCCCCc1ccccc1)OC(=O)CCCCCCCCc1ccccc1)N[C@H]1C(O)O[C@H](CO)[C@@H](OS(=O)(=O)O)[C@@H]1OC(=O)CCCCCCCCc1ccccc1 (stereo partly drawn) [Compound (2), 2-deoxy-2-[3S-(9-phenylnonanoyloxy)-9-phenylnonanoyl]amino-3-O-(9-phenylnonanoyl)-4-O-sulfo-D-glucopyranose] | 96
6 | CCCCCCCCCCC[C@@H](CC(=O)N[C@H]1C(O)O[C@H](CO)[C@@H](OS(=O)(=O)O)[C@@H]1OC(=O)CCCCCCCc1ccc(OC)cc1)OC(=O)CCCCCCCc1ccc(OC)cc1 (stereo partly drawn) [Compound (3)] | 97
7 | CCCCCCCCCCC[C@@H](CC(=O)N[C@H]1C(O)O[C@H](CO)[C@@H](OS(=O)(=O)O)[C@@H]1OC(=O)CCCCCCCCc1ccc(Cl)cc1)OC(=O)CCCCCCCCc1ccc(Cl)cc1 (stereo partly drawn) [Compound (4)] | 96
8 | CCCCCCCCCCC[C@@H](CC(=O)N[C@H]1C(O)O[C@H](CO)[C@@H](OS(=O)(=O)O)[C@@H]1OC(=O)CCCCc1ccc(CCCCC)cc1)OC(=O)CCCCc1ccc(CCCCC)cc1 (stereo partly drawn) [Compound (5), 2-deoxy-2-[3S-[5-(4-pentylphenyl)pentanoyloxy]tetradecanoyl]amino-3-O-[5-(4-pentylphenyl)pentanoyl]4-O-sulfo-D-glucopyranose] | 97
9 | O=C(CCCCCCCCc1ccc2ccccc2c1)N[C@H]1C(O)O[C@H](CO)[C@@H](OS(=O)(=O)O)[C@@H]1OC(=O)CCCCCCCCc1ccc2ccccc2c1 (stereo partly drawn) [Compound (6), 2-deoxy-2-[9-(2-naphthyl)nonanoyl]amino-3-O-[9-(2-naphthyl)nonanoyl]-40-sulfo-D-glucopyranose] | 97
10 | CCCCCCCCCCC[C@@H](CC(=O)N[C@H]1C(O)O[C@H](CO)[C@@H](OS(=O)(=O)O)[C@@H]1OC(=O)CCCCCCCOc1cc(Cl)cc(Cl)c1)OC(=O)CCCCCCCOc1cc(Cl)cc(Cl)c1 (stereo partly drawn) [Compound (7), 2-deoxy-2-[3S-[8-(3,5-dichlorophenoxy)octanoyloxy]tetradecanoyl]amino-3-O-[8-(3,5-dichlorophenoxy)octanoyl]-4-O-sulfo-D-glucopyranose] | 95
11 | CCCCCCCCCCCC(CC(=O)N[C@H]1COC[C@@H](OS(=O)(=O)O)[C@@H]1OC(=O)CCCCCCCCc1ccccc1)OC(=O)CCCCCCCCc1ccccc1 (stereo partly drawn) [Compound (8), 2-deoxy-2-[3RS-(9-phenylnonanoyloxy)tetradecanoyl]amino-3-O-(9-phenylnonanoyl)-4-O-sulfo-1,5-anhydro-D-xylitol] | 94
12 | CCCCCCCCCCCCCC(=O)O[C@H]1[C@H](OS(=O)(=O)O)[C@@H](CO)OC(O)[C@@H]1NC(=O)c1ccc(OCCCCCCCCCC)c(OCCCCCCCCCC)c1 (stereo partly drawn) [Compound (9)] | 93
13 | CCCCCCCCCCCCCC(=O)O[C@@H]1[C@@H](NC(=O)c2ccc(OCCCCCCCCCC)c(OCCCCCCCCCC)c2)[C@@H](OC)O[C@H](CO)[C@H]1OS(=O)(=O)O [Compound (10), methyl 2-deoxy-2-(3,4-didecyloxybenzoyl) amino-3-O-tetradecanoyl-4-O-sulfo-α-D-glucopyranoside] | 91
14 | CCCCCCCCCCC[C@@H](CC(=O)N[C@H]1CO[C@H](C)[C@@H](OS(=O)(=O)O)[C@@H]1OC(=O)CCCCCCCCc1ccccc1)OC(=O)CCCCCCCCc1ccccc1 [Compound (12), 2,6-deoxy-2-[3S-(9-phenylnonanoyloxy)tetradecanoyl]amino-3-O-(9-phenylnonanoyl)-4-O-sulfo-1,5-anhydro-D-glucitol] | 94
15 | CCCCCCCCCCCC(CC(=O)NC1CCCC(OS(=O)(=O)O)C1OC(=O)CCCCCCCCc1ccccc1)OC(=O)CCCCCCCCc1ccccc1 (stereo not drawn) [Compound (13), 3(syn)-[3RS-(9-phenylnonanoyloxy)tetradecanoyl]amino-2RS (anti)-(9-phenylnonanoyloxy)cyclohexa-1RS-yl-O-sulfonic acid] | 86
16 | CCCCCCCCCCC[C@@H](CC(=O)N[C@H]1C(O)O[C@H](CO)[C@@H](OS(=O)(=O)[O-])[C@@H]1OC(=O)CCCCCCCCc1ccccc1)OC(=O)CCc1ccccc1.[Na+] (stereo partly drawn) [Compound (14), 2-Deoxy-2-[3S-[3-phenylpropanoyloxy]tetradecanoyl]amino-3-O-[9-phenylnonanoyl]4-O-sulfo-D-glucopyranose sodium salt] | 96
17 | CCCCCCCCCCC[C@@H](CC(=O)N[C@H]1C(O)O[C@H](CO)[C@@H](OS(=O)(=O)[O-])[C@@H]1OC(=O)CCc1ccccc1)OC(=O)CCCCCCCCc1ccccc1.[Na+] (stereo partly drawn) [Compound (15), 2-Deoxy-2-[3S-[9-phenylnonanoyloxy]tetradecanoyl]amino-3-O-[3-phenylpropanoyl]-4-O-sulfo-D-glucopyranose sodium salt] | 93
18 | CCCCCCCCC[C@@H](CC(=O)N[C@H]1C(O)O[C@H](CO)[C@@H](OS(=O)(=O)[O-])[C@@H]1OC(=O)CCCCCCCCc1ccccc1)OC(=O)CCCCCCCCc1ccccc1.[Na+] (stereo partly drawn) [Compound (16), 2-Deoxy-2-[3S-[9-phenylnonanoyloxy]dodecanoyl]amino-3-O-[9-phenylnonanoyl]4-O-sulfo-D-glucopyranose sodium salt] | 92
19 | CCCCCCCCCCCCC[C@@H](CC(=O)N[C@H]1C(O)O[C@H](CO)[C@@H](OS(=O)(=O)[O-])[C@@H]1OC(=O)CCCCCCCCc1ccccc1)OC(=O)CCCCCCCCc1ccccc1.[Na+] (stereo partly drawn) [Compound (17), 2-Deoxy-2-[3S-[9-phenylnonanoyloxy]hexadecanoyl]amino-3-O-[9-phenylnonanoyl]4-O-sulfo-D-glucopyranose sodium salt] | 93
20 | CCCCCCCCCCC[C@H](CC(=O)N[C@H]1C(O)O[C@H](CO)[C@@H](OS(=O)(=O)[O-])[C@@H]1OC(=O)CCCCCCCCc1ccccc1)OC(=O)CCCCCCCCc1ccccc1.[Na+] (stereo partly drawn) [Compound (18), 2-Deoxy-2-R[3-[9-phenylnonanoyloxy]tetradecanoyl]amino-3-O-[9-phenylnonanoyl]4-O-sulfo-D-glucopyranose sodium salt] | 91
21 | CCCCCCCCCCCCCC(=O)O[C@@H](CCCCCCCCCCC)CC(=O)N[C@H]1C(O)O[C@H](C)[C@@H](OS(=O)(=O)O)[C@@H]1OC(=O)CCCCCCCCCCCCC (stereo partly drawn) [Example 4, 2,6-deoxy-2-[3S-(tetradecanoyloxy)tetradecanoyl]amino-3-O-tetradecanoyl-4-O-sulfo-D-glucopyranose] | 92
